Experimental data as given in patent US11000033B2, “Ketone or oxime compound, and herbicide” (NISSAN CHEMICAL CORPORATION, priority 2014, dated 2021).

Legend:
Assay type in all cases: in vivo
Avena fatua [1] = experiment: Test Example 4: herbicidal effect by soil treatment (symbol I); conditions: 320 g/ha
Method in brief: (§1)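 Seeds were sown in sterilized diluvial soil, covered with about 1.5 cm of soil, and the soil surface was sprayed with a water-diluted emulsion of the compound at a predetermined rate. Plants grew in a greenhouse at 25° C. to 30° C.; effects were scored visually 3 weeks after application.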

Digitaria ciliaris [2] = experiment: Test Example 4: herbicidal effect by soil treatment (symbol F); conditions: 320 g/ha
Method in brief: as §1

wheat = experiment: Test Example 5: effect on crop by foliage application, plastic box (symbol e); conditions: 320 g/ha, 3 weeks after application
Method in brief: (§2)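 In a plastic box 7 cm deep filled with sterilized diluvial soil, seeds of crops and weeds such as Digitaria ciliaris, Avena fatua and Amaranthus retroflexus are sown in spots and covered with about 1.5 cm of soil before greenhouse growth at 25–30° C.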

Lolium multiflorum Lam. = experiment: Test Example 4: herbicidal effect by soil treatment (symbol K); conditions: 320 g/ha
Method in brief: as §1

[3] = test system: Echinochloa crus-galli var. crus-galli; experiment: Test Example 4: herbicidal effect by soil treatment (symbol H); conditions: 320 g/ha
Method in brief: as §1

[4] = test system: directly sowed rice plant; experiment: Test Example 3: effect on crop by foliage application, Wagner pot (symbol b); conditions: application herbicide amount 320 g/ha
Method in brief: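 Greenhouse culture at 25–30 °C of seeded rice, Cyperus difformis, Leptochloa chinensis and Echinochloa crus-galli var. crus-galli, in alluvial soil held under 0.1–0.5 cm of water in a Wagner pot.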

Chenopodium album [5] = experiment: Test Example 5: herbicidal effect by foliage application, plastic box (symbol O); conditions: 320 g/ha, 3 weeks after application
Method in brief: (§3)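 After sowing into sterilized diluvial soil and growing two weeks under glass at 25° C. to 30° C., seedlings receive a uniform foliar spray of diluted emulsion. Damage is judged visually three weeks on.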

rapeseed [6] = experiment: Test Example 5: effect on crop by foliage application, plastic box (symbol g); conditions: 320 g/ha, 3 weeks after application
Method in brief: as §2

Scirpus juncoides = experiment: Test Example 1: herbicidal activity, application before weed generation in submerged conditions (symbol B); conditions: application herbicide amount 320 g/ha
Method in brief: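 Scores run 0 to 5 by herbicidal ratio, with 5 meaning 90% or more and 0 meaning 5% or lower, read 3 weeks after treatment. Compound was applied as a diluted emulsion to the water surface of submerged alluvial-soil pots on the day weed seeds were sown.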

Avena fatua [7] = experiment: Test Example 5: herbicidal effect by foliage application, plastic box (symbol I); conditions: 320 g/ha, 3 weeks after application
Method in brief: as §3

corn = experiment: Test Example 5: effect on crop by foliage application, plastic box (symbol c); conditions: 320 g/ha, 3 weeks after application
Method in brief: as §2

Chenopodium album [8] = experiment: Test Example 4: herbicidal effect by soil treatment (symbol O); conditions: 320 g/ha
Method in brief: as §1

Digitaria ciliaris [9] = experiment: Test Example 5: herbicidal effect by foliage application, plastic box (symbol F); conditions: 320 g/ha, 3 weeks after application
Method in brief: as §3

Stellaria media = experiment: Test Example 5: herbicidal effect by foliage application, plastic box (symbol P); conditions: 320 g/ha, 3 weeks after application
Method in brief: as §3

Veronica persica = experiment: Test Example 5: herbicidal effect by foliage application, plastic box (symbol R); conditions: 320 g/ha, 3 weeks after application
Method in brief: as §3

rice = experiment: Test Example 4: effect on crop by soil treatment (symbol b); conditions: 320 g/ha
Method in brief: (§4)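 Crop seeds, among them rice, wheat, beet and rapeseed, were sown in sterilized diluvial soil and covered with about 1.5 cm of soil. Boxes were kept in a greenhouse at 25° C. to 30° C. for plant growth.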

rapeseed [10] = experiment: Test Example 4: effect on crop by soil treatment (symbol g); conditions: 320 g/ha
Method in brief: as §4

CC(CC1CC(O)=C(c2c(C)cc(C)cc2C)C1=O)=NOCc1ccccc1[N+](=O)[O-] (stereo not drawn) [1-119]
I: Avena fatua, herbicidal effect grade (Avena fatua [1]): 1 (Herbicidal ratio of 5% or higher and lower than 20%) | F: Digitaria ciliaris, herbicidal effect grade (Digitaria ciliaris [2]): 4 (Herbicidal ratio of 70% or higher and lower than 90%) | e: wheat, effect on crop (criteria 0-5) (wheat): 4 (Herbicidal ratio of 70% or higher and lower than 90%) | K: Lolium multiflorum Lam., herbicidal effect grade (Lolium multiflorum Lam.): 5 (Herbicidal ratio of 90% or more (almost completely withered)) | H: Echinochloa crus-galli var. crus-galli, herbicidal effect grade [3]: 5 (Herbicidal ratio of 90% or more (almost completely withered)) | effect on crop b (directly sowed rice plant), grade 0-5 [4]: 5 (Herbicidal ratio of 90% or more (almost completely withered)) | O: Chenopodium album, herbicidal effect (criteria 0-5) (Chenopodium album [5]): 3 (Herbicidal ratio of 40% or higher and lower than 70%) | g: rapeseed, effect on crop (criteria 0-5) (rapeseed [6]): 5 (Herbicidal ratio of 90% or more (almost completely withered)) | Herbicidal effect grade, B: Scirpus juncoides (Scirpus juncoides): 0 (Herbicidal ratio of 5% or lower (almost no effect)) | I: Avena fatua, herbicidal effect (criteria 0-5) (Avena fatua [7]): 5 (Herbicidal ratio of 90% or more (almost completely withered)) | c: corn, effect on crop (criteria 0-5) (corn): 2 (Herbicidal ratio of 20% or higher and lower than 40%) | O: Chenopodium album, herbicidal effect grade (Chenopodium album [8]): 0 (Herbicidal ratio of 5% or lower (almost no effect)) | F: Digitaria ciliaris, herbicidal effect (criteria 0-5) (Digitaria ciliaris [9]): 5 (Herbicidal ratio of 90% or more (almost completely withered)) | P: Stellaria media, herbicidal effect (criteria 0-5) (Stellaria media): 1 (Herbicidal ratio of 5% or higher and lower than 20%) | R: Veronica persica, herbicidal effect (criteria 0-5) (Veronica persica): 3 (Herbicidal ratio of 40% or higher and lower than 70%) | b: directly sowed rice plant, effect grade on crop (rice): 5 (Herbicidal ratio of 90% or more (almost completely withered)) | g: rapeseed, effect grade on crop (rapeseed [10]): 3 (Herbicidal ratio of 40% or higher and lower than 70%)

CC(CC1CC(O)=C(c2c(C)cc(C)cc2C)C1=O)=NOCC(N)=O (stereo not drawn) [1-124]
I: Avena fatua, herbicidal effect grade (Avena fatua [1]): 0 (Herbicidal ratio of 5% or lower (almost no effect)) | F: Digitaria ciliaris, herbicidal effect grade (Digitaria ciliaris [2]): 0 (Herbicidal ratio of 5% or lower (almost no effect)) | e: wheat, effect on crop (criteria 0-5) (wheat): 3 (Herbicidal ratio of 40% or higher and lower than 70%) | K: Lolium multiflorum Lam., herbicidal effect grade (Lolium multiflorum Lam.): 3 (Herbicidal ratio of 40% or higher and lower than 70%) | H: Echinochloa crus-galli var. crus-galli, herbicidal effect grade [3]: 1 (Herbicidal ratio of 5% or higher and lower than 20%) | effect on crop b (directly sowed rice plant), grade 0-5 [4]: 5 (Herbicidal ratio of 90% or more (almost completely withered)) | O: Chenopodium album, herbicidal effect (criteria 0-5) (Chenopodium album [5]): 3 (Herbicidal ratio of 40% or higher and lower than 70%) | g: rapeseed, effect on crop (criteria 0-5) (rapeseed [6]): 4 (Herbicidal ratio of 70% or higher and lower than 90%) | Herbicidal effect grade, B: Scirpus juncoides (Scirpus juncoides): 0 (Herbicidal ratio of 5% or lower (almost no effect)) | I: Avena fatua, herbicidal effect (criteria 0-5) (Avena fatua [7]): 2 (Herbicidal ratio of 20% or higher and lower than 40%) | c: corn, effect on crop (criteria 0-5) (corn): 4 (Herbicidal ratio of 70% or higher and lower than 90%) | O: Chenopodium album, herbicidal effect grade (Chenopodium album [8]): 0 (Herbicidal ratio of 5% or lower (almost no effect)) | F: Digitaria ciliaris, herbicidal effect (criteria 0-5) (Digitaria ciliaris [9]): 0 (Herbicidal ratio of 5% or lower (almost no effect)) | P: Stellaria media, herbicidal effect (criteria 0-5) (Stellaria media): 2 (Herbicidal ratio of 20% or higher and lower than 40%) | R: Veronica persica, herbicidal effect (criteria 0-5) (Veronica persica): 0 (Herbicidal ratio of 5% or lower (almost no effect)) | b: directly sowed rice plant, effect grade on crop (rice): 1 (Herbicidal ratio of 5% or higher and lower than 20%) | g: rapeseed, effect grade on crop (rapeseed [10]): 0 (Herbicidal ratio of 5% or lower (almost no effect))

CON=C(C)CC1CC(OC(=O)CSc2ccccc2)=C(c2c(C)cc(C)cc2C)C1=O (stereo not drawn) [1-134]
I: Avena fatua, herbicidal effect grade (Avena fatua [1]): 2 (Herbicidal ratio of 20% or higher and lower than 40%) | F: Digitaria ciliaris, herbicidal effect grade (Digitaria ciliaris [2]): 5 (Herbicidal ratio of 90% or more (almost completely withered)) | e: wheat, effect on crop (criteria 0-5) (wheat): 5 (Herbicidal ratio of 90% or more (almost completely withered)) | K: Lolium multiflorum Lam., herbicidal effect grade (Lolium multiflorum Lam.): 5 (Herbicidal ratio of 90% or more (almost completely withered)) | H: Echinochloa crus-galli var. crus-galli, herbicidal effect grade [3]: 5 (Herbicidal ratio of 90% or more (almost completely withered)) | effect on crop b (directly sowed rice plant), grade 0-5 [4]: 5 (Herbicidal ratio of 90% or more (almost completely withered)) | O: Chenopodium album, herbicidal effect (criteria 0-5) (Chenopodium album [5]): 4 (Herbicidal ratio of 70% or higher and lower than 90%) | g: rapeseed, effect on crop (criteria 0-5) (rapeseed [6]): 4 (Herbicidal ratio of 70% or higher and lower than 90%) | Herbicidal effect grade, B: Scirpus juncoides (Scirpus juncoides): 5 (Herbicidal ratio of 90% or more (almost completely withered)) | I: Avena fatua, herbicidal effect (criteria 0-5) (Avena fatua [7]): 5 (Herbicidal ratio of 90% or more (almost completely withered)) | c: corn, effect on crop (criteria 0-5) (corn): 5 (Herbicidal ratio of 90% or more (almost completely withered)) | O: Chenopodium album, herbicidal effect grade (Chenopodium album [8]): 0 (Herbicidal ratio of 5% or lower (almost no effect)) | F: Digitaria ciliaris, herbicidal effect (criteria 0-5) (Digitaria ciliaris [9]): 5 (Herbicidal ratio of 90% or more (almost completely withered)) | P: Stellaria media, herbicidal effect (criteria 0-5) (Stellaria media): 2 (Herbicidal ratio of 20% or higher and lower than 40%) | R: Veronica persica, herbicidal effect (criteria 0-5) (Veronica persica): 1 (Herbicidal ratio of 5% or higher and lower than 20%) | b: directly sowed rice plant, effect grade on crop (rice): 5 (Herbicidal ratio of 90% or more (almost completely withered)) | g: rapeseed, effect grade on crop (rapeseed [10]): 0 (Herbicidal ratio of 5% or lower (almost no effect))
